Columns and labels:
B16F10 (melanoma) = experiment: B16F10 syngeneic mouse melanoma model, first study, tumor growth; assay type: in vivo; settings: single dose low dose gemcitabine 15 mg/kg and/or anti-CCR8 antibody Q3D 1 mg/kg, FIG. 3
Procedure: (§1) The ability of an anti-CCR8 antibody to augment tumor-specific effector T cell responses when paired with low-dose chemotherapy with or without an anti-PD-1 mAb was tested in vivo in different mouse syngeneic models, including 4T1 (breast cancer), Pan02 (pancreatic cancer), B16F10 (melanoma), LLC (lung cancer). 4T1 and Pan02 models are commonly understood to represent solid tumor models with strong immunosuppressive components. B16F10 and LLC are commonly viewed as cold tumor models.
(§2) The anti-CCR8 antibody used for the studies described herein is a mouse IgG2a isotype, and as described, e.g., by Campbell, J. R., et al. (2021). “Fc-Optimized Anti-CCR8 Antibody Depletes Regulatory T Cells in Human Tumor Models.” Cancer Res 81(11): 2983-2994. Isotype Control is a mouse IgG2a (BioXcell). Anti-PD-1 antibody is a mouse IgG1 antibody with D265A mutation.
A first study using the B16F10 model tested the relative antitumor activities of anti-CCR8 antibody and gemcitabine administrations as single agents and in combination. Following inoculation, mice were randomized and grouped (n=10 animals per group) when tumors reached 80-120 mm^3 and administered a single dose of low dose gemcitabine at 15 mg/kg (approximately 50% of most efficacious dose) and/or anti-CCR8 antibody Q3D at 1 mg/kg. A control group received an isotype control antibody. […] Tumors were collected at Day 5 post-dose. […]

[1] = test system: tumor infiltrating lymphocytes from B16F10 tumors; experiment: B16F10 model, flow cytometry of tumor infiltrating lymphocytes (Treg and CD8 frequency); assay type: in vivo, mouse; settings: B16F10 tumors collected at Day 5 post-dose, FIG. 4B
Source text: FIG. 4A and FIG. 4B show bar charts illustrating tumor infiltrating lymphocytes from a syngeneic mouse melanoma model (B16F10). Mice were each administered with a single dose of a control antibody, gemcitabine (“low dose SOC chemo”) and/or an anti-CCR8 antibody, and frequencies of regulatory T-cells (Tregs; […]) or effector T-cells ([…]) were quantified. T test results are shown, wherein **** is p<0.0001, *** p<0.001, ** is p<0.01 and * is p<0.1.
A first study using the B16F10 model tested the relative antitumor activities of anti-CCR8 antibody and gemcitabine administrations as single agents and in combination. Following inoculation, mice were randomized and grouped (n=10 animals per group) when tumors reached 80-120 mm^3 and administered a single dose of low dose gemcitabine at 15 mg/kg (approximately 50% of most efficacious dose) and/or anti-CCR8 antibody Q3D at 1 mg/kg. A control group received an isotype control antibody. […] Tumors were collected at Day 5 post-dose. […] Briefly, tumors were dissociated and prepared for flow cytometry staining. Cells were stained as follows: L/D, CD45, CD3, CD4, CD8, CD25, FoxP3. Samples were acquired on flow cytometer and data generated was used to determine Treg frequency (L/D negative, CD45 positive, CD3 positive, CD4 positive, CD25 positive, FoxP3 positive) and CD8 frequency (L/D negative, CD45 positive, CD3 positive, CD8 positive).

LLC (lung cancer) [2] = experiment: LLC syngeneic mouse lung model, first study, tumor growth; assay type: in vivo; settings: single dose low dose docetaxel 5 mg/kg and/or anti-CCR8 antibody Q3D 1 mg/kg, FIG. 6
Procedure: as §1, §2
A first study using the LLC model tested the relative antitumor activities of anti-CCR8 antibody and docetaxel administrations as single agents and in combination. Following inoculation, mice were randomized and grouped (n=8 animals per group) when tumors reached 80-120 mm^3 and administered a single dose of low dose docetaxel at 5 mg/kg (approximately 50% of most efficacious dose) and/or anti-CCR8 antibody Q3D at 1 mg/kg. A control group received an isotype control antibody.

LLC (lung cancer) [3] = experiment: LLC syngeneic mouse lung model, second study (single, dual, triple combinations), tumor growth; assay type: in vivo; settings: docetaxel 5 mg/kg, anti-CCR8 antibody Q3D 1 mg/kg, anti-PD-1 antibody Q3D 10 mg/kg, FIG. 7, FIG. 8
Procedure: as §1, §2
A second study using the LLC model tested the relative antitumor activities of anti-CCR8 antibody, anti-PD-1 antibody, and low dose docetaxel as single agents, dual combinations, and a triple combination. Following inoculation, mice were randomized and grouped (n=10 animals per group) when tumors reached 80-120 mm^3 and administered a single dose of docetaxel at 5 mg/kg, and/or anti-CCR8 antibody Q3D at 1 mg/kg, and/or anti-PD-1 antibody Q3D at 10 mg/kg. A control group received an isotype control antibody. […]

Nc1ccn([C@@H]2O[C@H](CO)[C@@H](O)C2(F)F)c(=O)n1 [gemcitabine]
tumor growth inhibition (B16F10 (melanoma)): did not result in substantial tumor growth inhibition
CD8+ T-cell infiltration in the tumors (CD8 frequency) [1]: significant CD8+ T-cell infiltration

CC(=O)O[C@@]12CO[C@@H]1C[C@H](O)[C@@]1(C)C(=O)[C@H](O)C3=C(C)[C@@H](OC(=O)[C@H](O)[C@@H](NC(=O)OC(C)(C)C)c4ccccc4)C[C@@](O)([C@@H](OC(=O)c4ccccc4)[C@H]21)C3(C)C [docetaxel]
tumor growth inhibition (LLC (lung cancer) [2]): did not result in substantial tumor growth inhibition
tumor growth inhibition (LLC (lung cancer) [3]): Partial tumor growth inhibition

— patent US20240165227A1, “ANTICANCER THERAPIES USING ANTI-CCR8 ANTIBODY, CHEMO AND IMMUNOTHERAPY COMBINATIONS” (Gilead Sciences, Inc., priority 2022, published 2024)
